Source: ChEMBL document CHEMBL1201862, “PubChem BioAssay data set” (2004)
The source made the active and inactive calls.

Key:
[1] = biological target: T1, Polyadenylate-binding protein 1 (Homo sapiens, UniProt P11940); assay: MLLE binding blockers, Cy5 peptide tracer – biochemical, fluorescence polarization, Cy5-PAM2 peptide, secondary, miRNA deadenylation inhibitor project, dose response (AID 602260); type: functional; conditions: read-out: IC50_Mean
[2] = biological target: T1, Polyadenylate-binding protein 1; assay: MLLE domain peptide-binding blockers, IC50 – biochemical, fluorescence polarization, FITC-PAM2 peptide, dose response (AID 602259); type: functional; conditions: read-out: IC50_Mean
[3] = biological target: T2, Histone-lysine N-methyltransferase NSD2 (Homo sapiens, UniProt O96028); type: biochemical
T2 sequence (O96028 whole entry): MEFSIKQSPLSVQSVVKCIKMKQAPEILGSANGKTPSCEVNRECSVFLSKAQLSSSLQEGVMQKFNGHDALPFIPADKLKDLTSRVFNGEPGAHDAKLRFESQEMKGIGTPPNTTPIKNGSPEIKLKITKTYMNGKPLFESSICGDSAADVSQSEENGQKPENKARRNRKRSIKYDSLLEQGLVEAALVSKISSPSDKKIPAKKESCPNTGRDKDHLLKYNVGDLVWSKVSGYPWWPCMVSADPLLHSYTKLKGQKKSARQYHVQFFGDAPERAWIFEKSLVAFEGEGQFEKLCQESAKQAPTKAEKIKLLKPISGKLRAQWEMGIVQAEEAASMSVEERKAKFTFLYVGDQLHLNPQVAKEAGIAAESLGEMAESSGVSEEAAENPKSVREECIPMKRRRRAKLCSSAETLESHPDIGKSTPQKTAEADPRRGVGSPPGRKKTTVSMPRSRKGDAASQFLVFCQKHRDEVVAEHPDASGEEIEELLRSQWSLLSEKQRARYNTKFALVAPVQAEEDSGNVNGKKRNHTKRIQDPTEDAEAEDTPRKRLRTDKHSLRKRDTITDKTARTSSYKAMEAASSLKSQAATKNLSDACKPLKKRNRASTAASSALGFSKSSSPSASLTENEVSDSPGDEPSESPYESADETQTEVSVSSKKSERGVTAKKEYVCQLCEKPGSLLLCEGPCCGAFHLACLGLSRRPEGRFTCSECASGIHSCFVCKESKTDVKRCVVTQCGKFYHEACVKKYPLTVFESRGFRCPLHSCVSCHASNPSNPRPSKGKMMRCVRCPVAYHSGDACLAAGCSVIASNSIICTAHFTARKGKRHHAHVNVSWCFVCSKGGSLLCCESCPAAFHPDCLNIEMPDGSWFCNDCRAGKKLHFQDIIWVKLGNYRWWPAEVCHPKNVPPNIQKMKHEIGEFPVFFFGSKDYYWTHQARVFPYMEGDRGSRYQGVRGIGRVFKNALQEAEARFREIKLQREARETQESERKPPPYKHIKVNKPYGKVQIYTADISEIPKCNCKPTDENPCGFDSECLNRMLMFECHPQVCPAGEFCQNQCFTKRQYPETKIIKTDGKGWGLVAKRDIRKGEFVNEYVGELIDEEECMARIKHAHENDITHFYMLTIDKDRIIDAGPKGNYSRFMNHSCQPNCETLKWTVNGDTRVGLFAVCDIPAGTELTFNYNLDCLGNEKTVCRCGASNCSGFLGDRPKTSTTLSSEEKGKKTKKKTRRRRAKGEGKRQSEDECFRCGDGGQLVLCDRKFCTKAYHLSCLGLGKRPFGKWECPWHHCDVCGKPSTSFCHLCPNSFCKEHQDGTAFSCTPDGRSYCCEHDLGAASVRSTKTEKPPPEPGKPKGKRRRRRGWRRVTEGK

[4] = biological target: Glucose-6-phosphate 1-dehydrogenase (Homo sapiens, UniProt P11413); assay: inhibition of Homo sapiens G6PD, dose series – biochemical, fluorescence, selectivity assay for P. falciparum G6PD inhibitor project, dose response (AID 504792); type: functional
Protein skinhead-1 = biological target: T3, Protein skinhead-1 (Caenorhabditis elegans, UniProt P34707); type: functional
T3 sequence (P34707 whole entry): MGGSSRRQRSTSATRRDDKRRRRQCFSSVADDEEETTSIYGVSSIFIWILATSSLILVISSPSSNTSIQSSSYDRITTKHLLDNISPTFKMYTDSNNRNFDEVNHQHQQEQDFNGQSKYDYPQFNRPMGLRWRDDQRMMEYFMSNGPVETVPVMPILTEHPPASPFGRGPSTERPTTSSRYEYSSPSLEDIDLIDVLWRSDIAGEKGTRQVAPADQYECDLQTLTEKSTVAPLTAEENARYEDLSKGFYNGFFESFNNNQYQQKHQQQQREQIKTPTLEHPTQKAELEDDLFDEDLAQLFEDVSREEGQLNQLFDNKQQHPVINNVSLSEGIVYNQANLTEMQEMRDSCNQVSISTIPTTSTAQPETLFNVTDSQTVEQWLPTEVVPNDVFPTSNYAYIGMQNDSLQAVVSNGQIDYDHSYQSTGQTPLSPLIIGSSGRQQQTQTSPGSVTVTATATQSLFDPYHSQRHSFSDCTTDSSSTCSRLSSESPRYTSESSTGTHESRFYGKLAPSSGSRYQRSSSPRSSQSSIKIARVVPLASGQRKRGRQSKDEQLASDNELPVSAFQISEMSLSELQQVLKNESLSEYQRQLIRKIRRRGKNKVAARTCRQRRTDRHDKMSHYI

cells [5] = type: functional
[6] = biological target: T4, Replicative DNA helicase DnaB (Mycobacterium tuberculosis, UniProt P9WMR3); assay: DnaB intein splicing inhibitors, dose response, biochemical, cell-free fluorescence (AID 449749); type: functional
T4 sequence (P9WMR3 whole entry): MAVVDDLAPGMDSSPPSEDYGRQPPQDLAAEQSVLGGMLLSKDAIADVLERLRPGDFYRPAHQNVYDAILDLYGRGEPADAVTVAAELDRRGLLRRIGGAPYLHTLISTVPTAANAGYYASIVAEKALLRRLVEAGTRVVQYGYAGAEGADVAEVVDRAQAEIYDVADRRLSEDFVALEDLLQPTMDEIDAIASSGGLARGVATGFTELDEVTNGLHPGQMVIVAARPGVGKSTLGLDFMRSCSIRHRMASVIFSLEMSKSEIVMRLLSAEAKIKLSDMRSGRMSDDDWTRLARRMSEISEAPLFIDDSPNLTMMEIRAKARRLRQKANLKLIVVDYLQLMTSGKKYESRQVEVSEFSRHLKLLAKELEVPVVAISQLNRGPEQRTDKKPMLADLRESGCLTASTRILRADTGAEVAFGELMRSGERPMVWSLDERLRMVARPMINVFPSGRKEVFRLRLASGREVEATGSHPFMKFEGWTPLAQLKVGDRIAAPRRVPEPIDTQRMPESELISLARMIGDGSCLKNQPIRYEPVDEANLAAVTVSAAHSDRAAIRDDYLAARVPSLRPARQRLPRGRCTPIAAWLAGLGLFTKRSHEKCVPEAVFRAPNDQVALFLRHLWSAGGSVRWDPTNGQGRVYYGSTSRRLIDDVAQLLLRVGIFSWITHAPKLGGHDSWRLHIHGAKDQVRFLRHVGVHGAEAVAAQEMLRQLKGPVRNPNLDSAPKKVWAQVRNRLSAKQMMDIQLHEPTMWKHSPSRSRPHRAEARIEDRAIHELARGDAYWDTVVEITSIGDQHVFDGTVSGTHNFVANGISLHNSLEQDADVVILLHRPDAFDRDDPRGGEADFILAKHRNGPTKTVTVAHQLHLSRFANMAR

Protein RecA = biological target: T5, Protein RecA (Mycobacterium tuberculosis, UniProt P9WHJ3); assay: Fluorescence Cell-Free Homogeneous Dose Retest to Identify Inhibitors of RecA-Intein Splicing Activity. [Related pubchem assays (depositor defined):AID2097, AID2223, AID489010, AID492950]; type: functional
T5 sequence (P9WHJ3 whole entry): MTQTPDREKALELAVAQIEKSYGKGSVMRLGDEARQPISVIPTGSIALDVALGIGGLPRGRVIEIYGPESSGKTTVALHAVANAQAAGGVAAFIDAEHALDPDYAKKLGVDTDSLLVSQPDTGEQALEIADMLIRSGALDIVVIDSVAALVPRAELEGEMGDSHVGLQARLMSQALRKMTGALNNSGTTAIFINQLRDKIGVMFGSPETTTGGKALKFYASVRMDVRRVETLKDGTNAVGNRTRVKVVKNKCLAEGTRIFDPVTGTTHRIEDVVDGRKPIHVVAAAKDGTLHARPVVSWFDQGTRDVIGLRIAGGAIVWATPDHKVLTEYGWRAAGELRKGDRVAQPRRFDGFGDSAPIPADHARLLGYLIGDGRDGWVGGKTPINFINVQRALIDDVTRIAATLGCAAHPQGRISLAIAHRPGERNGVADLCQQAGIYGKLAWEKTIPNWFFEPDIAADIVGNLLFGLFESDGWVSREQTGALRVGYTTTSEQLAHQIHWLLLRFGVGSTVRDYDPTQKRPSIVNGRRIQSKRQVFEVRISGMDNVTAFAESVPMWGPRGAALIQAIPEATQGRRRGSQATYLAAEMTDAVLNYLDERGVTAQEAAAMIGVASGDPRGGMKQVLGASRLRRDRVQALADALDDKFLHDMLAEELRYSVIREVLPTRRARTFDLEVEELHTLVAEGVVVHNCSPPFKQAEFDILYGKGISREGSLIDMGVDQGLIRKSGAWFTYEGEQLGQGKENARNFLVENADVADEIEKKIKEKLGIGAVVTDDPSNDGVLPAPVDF

[7] = viability loss in HeLa cells – cytotoxicity control for MgcRacGAP inhibitor project, dose response (AID 624300); type: functional
cells [8] = type: functional, cell-based
cells [9] = type: functional, cell-based; remark: listed apart in the source
[10] = Trypanosoma cruzi growth suppression in host cells – NIH3T3 host cells, beta-gal luminescence, confirmation (AID 2044); type: functional, cell-based;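 further: intracellular parasites grown in NIH/3T3 mouse fibroblasts as host cells; luminescent beta-galactosidase reporter signal from transgenic T. cruzi replicating inside host cells; inhibitors lower the luminescence signal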
[11] = NIH3T3 cell viability loss – ATP luminescence, mouse fibroblasts, counter-screen, dose response (AID 2010); type: functional, cell-based;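 further: cells exposed to compound for about 90 hours before reading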
[12] = biological target: T6, Rac GTPase-activating protein 1 (Homo sapiens, UniProt Q9H0H5); assay: blockers of MgcRacGAP-driven Rac1 GTP hydrolysis – biochemical, ADP Hunter fluorescence, primary and confirmatory, confirmation (AID 624330); type: functional
T6 sequence (Q9H0H5 whole entry): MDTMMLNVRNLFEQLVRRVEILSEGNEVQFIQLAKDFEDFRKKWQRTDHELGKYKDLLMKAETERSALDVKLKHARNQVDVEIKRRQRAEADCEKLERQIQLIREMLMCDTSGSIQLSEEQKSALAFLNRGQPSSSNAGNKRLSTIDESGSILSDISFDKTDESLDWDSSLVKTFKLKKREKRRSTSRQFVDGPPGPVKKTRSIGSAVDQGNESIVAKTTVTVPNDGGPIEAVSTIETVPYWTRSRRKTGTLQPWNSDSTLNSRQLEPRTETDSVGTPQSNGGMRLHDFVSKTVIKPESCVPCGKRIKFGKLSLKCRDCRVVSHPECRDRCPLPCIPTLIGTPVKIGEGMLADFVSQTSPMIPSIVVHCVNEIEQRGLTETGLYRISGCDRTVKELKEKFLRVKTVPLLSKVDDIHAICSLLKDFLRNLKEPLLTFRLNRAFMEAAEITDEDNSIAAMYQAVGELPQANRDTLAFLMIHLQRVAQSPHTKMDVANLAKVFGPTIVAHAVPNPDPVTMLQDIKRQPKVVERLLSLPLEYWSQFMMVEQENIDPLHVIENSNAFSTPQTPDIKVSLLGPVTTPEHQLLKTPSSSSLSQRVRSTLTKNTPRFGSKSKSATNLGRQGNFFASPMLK

Glucose-6-phosphate 1-dehydrogenase, sequence (P11413 whole entry): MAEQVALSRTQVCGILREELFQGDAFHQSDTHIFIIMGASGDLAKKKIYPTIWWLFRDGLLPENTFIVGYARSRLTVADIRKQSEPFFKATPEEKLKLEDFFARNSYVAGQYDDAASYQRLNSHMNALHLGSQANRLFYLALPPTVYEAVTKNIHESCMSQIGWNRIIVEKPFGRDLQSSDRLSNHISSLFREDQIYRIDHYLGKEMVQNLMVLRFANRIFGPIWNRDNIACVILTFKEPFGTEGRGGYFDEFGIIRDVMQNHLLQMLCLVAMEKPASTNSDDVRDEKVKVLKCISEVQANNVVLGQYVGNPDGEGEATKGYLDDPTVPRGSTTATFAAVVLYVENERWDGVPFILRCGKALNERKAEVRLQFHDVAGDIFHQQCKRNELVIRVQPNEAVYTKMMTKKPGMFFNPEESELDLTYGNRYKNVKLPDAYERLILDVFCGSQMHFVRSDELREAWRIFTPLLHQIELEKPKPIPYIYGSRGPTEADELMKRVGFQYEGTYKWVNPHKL
T1 sequence (P11940 whole entry, the tested form may be a part): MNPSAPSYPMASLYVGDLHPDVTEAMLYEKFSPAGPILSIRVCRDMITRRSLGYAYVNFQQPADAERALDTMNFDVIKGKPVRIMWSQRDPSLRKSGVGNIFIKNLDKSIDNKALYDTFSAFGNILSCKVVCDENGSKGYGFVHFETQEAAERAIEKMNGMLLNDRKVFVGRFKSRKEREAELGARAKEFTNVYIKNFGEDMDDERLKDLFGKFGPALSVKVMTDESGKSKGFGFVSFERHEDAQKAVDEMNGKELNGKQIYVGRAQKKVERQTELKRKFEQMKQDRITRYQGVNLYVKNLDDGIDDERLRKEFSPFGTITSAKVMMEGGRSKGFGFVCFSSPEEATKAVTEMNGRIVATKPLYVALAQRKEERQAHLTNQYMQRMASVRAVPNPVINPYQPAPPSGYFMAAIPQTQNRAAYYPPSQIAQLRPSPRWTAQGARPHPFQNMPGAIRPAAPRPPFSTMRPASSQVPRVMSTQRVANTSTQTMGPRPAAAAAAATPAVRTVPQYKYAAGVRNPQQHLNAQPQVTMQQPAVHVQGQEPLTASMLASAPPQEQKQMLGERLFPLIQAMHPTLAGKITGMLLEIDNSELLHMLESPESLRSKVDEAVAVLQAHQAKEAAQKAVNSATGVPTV

CN(C=[N+](C)C)c1cccc2c1C(=O)c1ccccc1C2=O
IC50 [1]: > 66 µM (inactive)
IC50 [2]: 58.5 µM (inactive)
AC50 [3]: > 20 µM (inactive)

CN(C)c1ccc(C=c2c3ccccc3n3c2c2ccccc2[n+]3C)cc1
IC50 [4]: > 80 µM (inactive)

O=C(O)CCc1ccc(-c2ccccc2)n1NC(=O)c1ccco1
IC50 (Protein skinhead-1): > 100 µM (inactive)

COc1ccc(C2(CNC(=O)c3ccc(OC)c([N+](=O)[O-])c3)CCCCC2)cc1OC
IC50 [4]: 60.7 µM (inactive)

CCN(CC)CCCNC(=O)C1CCN(C(=O)c2oc3cc4sc(N(C)C)nc4cc3c2C)CC1
AC50 [3]: > 20 µM (inactive)

COc1ccc(CC(=O)Nc2cc(S(=O)(=O)N3CCOCC3)ccc2N2CCOCC2)cc1
IC50 (Protein skinhead-1): > 100 µM (inactive)

Cc1ccc(-c2nnc(SCC#CCOC(=O)c3ccco3)o2)cc1
IC50 (cells [5]): 4.78 µM (active)

CCCCCn1nnc2c(=O)oc3ccccc3c21
IC50 (cells [5]): 2.67 µM (active)

CCN(Cc1ccccc1)C(c1ccc(C)cc1)c1nnnn1C(C)(C)CC (configuration not stated)
AC50 [6]: 2.41 µM (active)
EC50 (Protein RecA): > 380 µM (inactive)
CC50 [7]: 100 µM (active)

CC(C)=N/N=C(\N)SCc1ccccc1
IC50 (cells [8]): > 29.9 µM (inactive)
EC50 (cells [9]): > 29.9 µM (inactive)

O=C(NC(c1ccc(-c2ccccc2)cc1)c1cnccn1)C1CCN(Cc2cccs2)CC1 (configuration not stated)
IC50 (Protein skinhead-1): > 100 µM (inactive)

N#C/C(=C\c1ccc(F)cc1)c1nc(-c2ccco2)cs1
IC50 (Protein skinhead-1): > 100 µM (inactive)

COc1ccc(CNCCc2ccc(Cl)cc2)c(OC)c1OC
EC50 [10]: 462 nM (active)
EC50 [11]: > 60 µM (not active)
CC50 [7]: 100 µM (active)
IC50 [12]: 259 µM (active)

Brc1ccc(-c2csc(-c3ccncc3)n2)cc1
IC50 (Protein skinhead-1): 51.6 µM (inactive)
